Reference: patent US8492329B2, “Bioactive peptides and methods of using same” (Compugen Ltd., priority 2007, dated 2013)
No end group written: not given here.

Tests used:
[1] = system: untransfected CHO-K1 cells; assay: ACEA RT-CES cell impedance, untransfected CHO-K1 cells; format: cell-based; settings: for effect on cell impedance (normalized cell index): P74C13V 10 uM, H2 Relaxin 1 uM, FIG. 11; for dose response activation (cell impedance): data not shown
Description: ACEA RT-CES screen is a noninvasive and label-free assay for GPCRs that can be used with both engineered and nonengineered cell lines. The assay is based on using cell-electrode impedance to measure minute changes in cellular morphology as a result of ligand-dependent GPCR activation and is described in Naichen Yu, et al., Anal. Chem., 78 (1), 35-43, 2006. 10.1021/ac051695v S0003-2700(05)01695-1. The Rho family of small GTPases, which include Rho, Rac, and CDC42, are well-characterized effectors of oncogenes, growth factor and adhesion-mediated signaling pathways and are not classically thought of as being key effectors for GPCRs. Rho family GTPases participate in a number of cellular processes, the main one being regulation and maintenance of specific structures within the actin cytoskeleton framework. […] The current view of the actin cytoskeleton is that of a dynamic and plastic system that is a reflection and manifestation of the intracellular signaling and not simply a static structure designed to maintain cellular architecture. Since GPCRs couple to the actin cytoskeletal network and induce very defined morphological changes, it is possible to harness this information as a functional and biologically relevant readout for GPCRs.
ACEA biosciences; has designed electronic cell sensor arrays embedded in the bottom of the well of microtiter plates that are capable of measuring minute changes in cell morphology. The electronic sensors measure changes in cell-substrate impedance as a result of the disruption of the ionic environment due to the presence of cell and cell morphology dynamics. The main advantages offered by using cell-substrate impedance and cell morphology as a readout are that both exogenously expressed and endogenous receptors can be assayed without the need for engineering the cell with promiscuous G proteins and reporters or labeling the cells with dyes. In addition, since the readout is noninvasive, multiple stimulations with the same ligand or different ligands can be performed to assess events such as desensitization and receptor cross-talk. Finally, another major aspect of using cell-substrate impedance and cell morphology as a readout is that potentially all GPCRs, regardless of the signaling pathways, can be functionally monitored.
Peptides were synthesized by the solid phase peptide synthesis (SPPS) method, cleaved from the resin, and purified by RP-HPLC unless stated otherwise. […] Final purity of peptide was >90% as measured by RP-HPLC. […]
Before the transfected cells were seeded, […] SFM F12-HAM medium were added to each well of the E-plates and background levels were recorded.
Total cell number was calculated and cells were re-suspended in complete growth medium to cell concentration ranging from 0.3125×10^6/mL up to 0.4375×10^6/mL. […]

LGR4 = biological target: T1, LGR4 (Homo sapiens, UniProt Q9BXB1); assay: ACEA RT-CES cell impedance, LGR4 transfected CHO-K1 cells; format: cell-based; settings: P74C13V 10 uM, H2 Relaxin 1 uM, FIG. 15
T1 construct: expressed in transfected cells; host or cells: CHO-K1 (transient)
Description: ACEA RT-CES screen is a noninvasive and label-free assay for GPCRs that can be used with both engineered and nonengineered cell lines. The assay is based on using cell-electrode impedance to measure minute changes in cellular morphology as a result of ligand-dependent GPCR activation and is described in Naichen Yu, et al., Anal. Chem., 78 (1), 35-43, 2006. 10.1021/ac051695v S0003-2700(05)01695-1. The Rho family of small GTPases, which include Rho, Rac, and CDC42, are well-characterized effectors of oncogenes, growth factor and adhesion-mediated signaling pathways and are not classically thought of as being key effectors for GPCRs. […] Since GPCRs couple to the actin cytoskeletal network and induce very defined morphological changes, it is possible to harness this information as a functional and biologically relevant readout for GPCRs.
ACEA biosciences; has designed electronic cell sensor arrays embedded in the bottom of the well of microtiter plates that are capable of measuring minute changes in cell morphology. […] The main advantages offered by using cell-substrate impedance and cell morphology as a readout are that both exogenously expressed and endogenous receptors can be assayed without the need for engineering the cell with promiscuous G proteins and reporters or labeling the cells with dyes. […]

effect on cell impedance (normalized cell index) (LGR4) | Substance | effect on cell impedance (normalized cell index) [1] | dose response activation (cell impedance) [1]
moderate effect | GQKGQVGPPGAAVRRAYAAFSVGRRAYAAFSV-OH [Peptide P74C13V] | moderate effect | no dose dependent activation but only a moderate activation of the highest concentrations
much stronger effect | H2 Relaxin: H2 Relaxin (ACS), positive control, known ligand of LGR7 (RXFP1) [reference compound] | moderate effect | no dose dependent activation but only a moderate activation of the highest concentrations
